{"source": "patent US11452768B2", "about": "“Combination therapy with neoantigen vaccine” (The Broad Institute Inc., priority 2013, dated 2022)", "origin": "cited, not measured here", "key": {"advanced melanoma": {"system": "advanced melanoma", "conditions": "nivolumab and ipilimumab combined, intravenous"}, "ovarian carcinoma": {"system": "ovarian carcinoma", "conditions": "in combination with NY-ESO-1 peptide vaccine and Montanide"}, "[1]": {"system": "gene expression in whole blood", "conditions": "one single s.c. administration, 8 volunteers vs 4 placebo"}, "[2]": {"system": "advanced hormone refractory prostate cancer", "conditions": "personalized vaccination combined with a low dose of estramustine"}}, "data": [{"molecule": "nivolumab: fully human IgG4 blocking monoclonal antibody against PD-1", "values": [{"measurement": "Objective responses", "setting": "tumor types; across tumor types", "value": "16-31%"}, {"measurement": "Durability of most responses", "setting": "tumor types; in vivo", "value": "> 1", "unit": "year"}, {"measurement": "Safety", "setting": "tumor types; in vivo", "value": "safe"}, {"measurement": "Maximum doses associated with an acceptable level of adverse events", "setting": "advanced melanoma", "value": 1, "unit": "mg per kilogram"}]}, {"molecule": "ipilimumab: monoclonal antibody that binds and blocks CTLA-4", "values": [{"measurement": "Maximum doses associated with an acceptable level of adverse events", "setting": "advanced melanoma", "value": 3, "unit": "mg per kilogram"}]}, {"molecule": "Polyinosinic-Polycytidylic Acid-poly-L-lysine Carboxymethylcellulose [poly-ICLC]", "values": [{"measurement": "Patients showing induction of CD4+ and CD8+ T cell and antibody responses to the peptide", "setting": "ovarian carcinoma", "value": "> 90", "unit": "%"}, {"measurement": "Differentially expressed genes versus placebo", "setting": "[1]", "value": "up to 212 genes"}, {"measurement": "Fever (common adverse event, primary dose-limiting factor)", "setting": "high doses ≥6 mg/m2", "value": "above 40 °C"}, {"measurement": "Tolerability across all studies and spectrum of diseases", "setting": "low dose (1-2 mg total dose)", "value": "well-tolerated"}]}, {"molecule": "C[C@]12CC[C@@H]3c4ccc(OC(=O)N(CCCl)CCCl)cc4CC[C@H]3[C@@H]1CC[C@@H]2O", "note": "[estramustine]", "values": [{"measurement": "Patients with a ≥50% decrease in serum prostate specific antigen (PSA)", "setting": "[2]", "value": 54, "unit": "%"}]}]}
